Experimental findings from patent US12453358B2, “Theanine-producing strain and use thereof in tea fermentation production” (GUANGZHOU ZHONGZHUANG BEAUTY COSMETICS CO., LTD, priority 2024, dated 2025) are described below.

For one test, the system named is MMP-1. The test is described as follows: Anti-wrinkle index test: MMP-1 content in supernatant of UVA-stimulated fibroblasts (ELISA). The format is cell-based, human. Particulars: UVA 7 J/cm^2, samples 24 h, black tea fermentation liquor 6%, VC 80 µg/ml, GSH 20 m/ml. How it is done:
(§1) Test of anti-wrinkle index of fibroblasts: fibroblasts were set with a blank control group, a model group, a positive control group and a sample group. The number of cells per well was controlled to be 5×10^5. After incubation at 37° C. for 24 h in a 5% CO2 incubator, the medium was removed and a small amount of PBS (pH of 7.4) was added to just cover the cells. The cells were stimulated with UVA at the UV radiation dose of 7 J/cm^2, and the blank control group was not radiated. PBS was discarded, samples with different concentrations were added, with the addition concentration of the black tea fermentation liquor being 6%, VC being 80 µg/ml, and GSH being 20 m/ml; and the cells were stimulated for 24 h. The cell culture supernatants were centrifuged for 15 min at 4° C. and 1000 g, and the supernatants were tested for MMP-1 content using human matrix metalloproteinase-1 (MMP-1) ELISA Kit. The cell suspension was diluted with PBS (pH of 7.2-7.4) to obtain a cell concentration of 1×10^6 cells/mL, and the cells were ruptured after repeated freeze-thaw treatment. The cells were centrifuged at 1000 g for 20 min to obtain the supernatant, which was used to test the CoLI content using a type I collagen (CoLI) test box, and test the HA content using human hyaluronic acid (HA) ELISA Kit. All operations were conducted in accordance with the kit instructions.
In general terms: ELISA stands for enzyme-linked immunosorbent assay.

Another test concerns type I collagen (CoLI). The test is described as follows: Anti-wrinkle index test: CoL I content in UVA-stimulated fibroblasts (type I collagen test box). Particulars: UVA 7 J/cm^2, samples 24 h, black tea fermentation liquor 6%, VC 80 µg/ml, GSH 20 m/ml. It is filed as cell-based. Here is the method: as §1
The next test relates to hyaluronic acid (HA). Kind of test: Anti-wrinkle index test: HA content in UVA-stimulated fibroblasts (ELISA). Particulars: UVA 7 J/cm^2, samples 24 h, black tea fermentation liquor 6%, VC 80 µg/ml, GSH 20 m/ml. The format is cell-based, human. Here is the method: as §1
The test system of test [1] is theanine synthesis system. Kind of test: High throughput screening of alanine decarboxylase CsAlaDC mutant enzyme in theanine synthesis system. It is filed as biochemical, Escherichia coli. Here is the method:
First, a BL21-GMAS-CsAlaDC recombinant single colony was selected and loaded onto a 96-well plate, added into a 800 μL LB medium, and cultured at 37° C. and 900 r/min for 6 h; thereafter, IPTG (isopropyl-3-D-thiogalactoside) at a final concentration of 0.1 mM was added, and cultured at 24° C. for 16 h. Into the 96-well plate, 0.1 mL glycerol, 200 μL potassium glutamate of 50 mM, 200 μL alanine of 50 mM, 50 μL ATP of 10 mM, 80 μL MgCl2 of 5 mM, 85 μL DTT of 10 mM, and 85 μL Tris-HCl of 100 mM (pH 7.5) were sequentially added, to form a theanine synthesis system. The synthesis reaction was conducted for 24 h in a 30° C. water bath and repeated three times. […]
Color developing solution: 1.0 g/L soluble starch was weighed, mixed with distilled water, and boiling distilled water was added. […] After cooling, insoluble substances were filtered through a quantitative filter paper, and 1.0 g sodium hydroxide was added. […]
10 mL EP tubes were taken, 1 mL theanine sample and 4 mL sodium bicarbonate solution were added to one tube, and 5 mL sodium bicarbonate solution was added to the other tube, mixed and then stood for 5 min. […] Immediately after being mixed well, their absorbance values were respectively measured at the wavelength of 570 nm on the spectrophotometer by using distilled water as reference and with a cuvette. A high absorbance at 570 nm indicates a high theanine content. […]

Take `N[C@@H](CCC(=O)N[C@@H](CS)C(=O)NCC(=O)O)C(=O)O` [GSH]: the MMP-1 content in the test on MMP-1 was found to be 21.17. In addition, the “CoL I content” value in the test with type I collagen (CoLI) came to 6.89. For the same molecule, the HA content in the test with hyaluronic acid (HA) is 5.45.

`O=C1O[C@H]([C@@H](O)CO)C(O)=C1O` [VC]: in the test on MMP-1, the MMP-1 content turned out to be 20.42. Moreover, in the test on type I collagen (CoLI), the “CoL I content” value amounted to 2.45. Moreover, the HA content in the test on hyaluronic acid (HA) is listed as 4.38.

B1: CsAlaDC-I177Y (protein)
chain: MEGTVSVLSNVSKVELLSKCFDLITIPVEPLPPVVASNGVAGGETKKMKEKDIVLGKNVHTTSLTITEPDVDDDSTSDMEAFMAGVLVRYRKTLIEKTKYHLGYPFNLDLDYGPLAELQHFAINNLGDPFIESNYGVHSRQFEVGVLDWFARLWEIEQKEYWGYITNGGTEGNLHGYLVGREVFPDGIFYTSRESHYSIFKAARMYRMECVKVGTLINGEIDCADFKAKLLSNKDKPAIINLNIGTTVKGAVDDIDLVIQTLEECGFSHDRFYIHCDGALFGFMMPFLNRGPKITFKKPIGSVSVSGHKFMGCPTPCGVQITRLEHINALSRNVEYLASRDATITGSRNGHSPIILWYALNRKGFKGFQKEVQKCLRNAHYLKDRLREAGISAMLNELSSTVVFERPLDEEFVRRWQLACEGNMAHVIVMPNVTIEKLDEFLNELVQKRANWYNDGKAGPPCLAPDIGSENCDCDLHK
In the case of B1, in test [1] (BL21-GMAS-CsAlaDC recombinant, glutamate + alanine + ATP, no ethylamine, 30° C., 24 h), the “content of theanine catalyzed by the enzyme” value was 93.6 µM. Moreover, in test [1] (compared with original enzyme CsAlaDC), the “theanine content higher than that of original enzyme CsAlaDC” value is reported as 85%.
